From patent US20180186742A1, “PICOLINAMIDES AS FUNGICIDES” (Dow AgroSciences LLC, priority 2017, published 2018)
Where two headings read alike, the source gives them in different places.

How the values were obtained:
Assay type in all cases: in vivo
[1] = tested on: Uncinula necator; experiment: Grape powdery mildew (UNCINE), disease control on grape seedlings; details: Erysiphe necator, 24 h, 1DP (1 Day Protectant) test at 100 ppm
Protocol: Technical grades of materials were dissolved in acetone, which were then mixed with nine volumes of water containing 110 ppm Triton X-100. The fungicide solutions were applied onto wheat seedlings using an automated booth sprayer to run-off. All sprayed plants were allowed to air dry prior to further handling. All fungicides were evaluated using the aforementioned method for their activity vs. all target diseases, unless stated otherwise. Wheat leaf blotch and brown rust activity were also evaluated using track spray applications, in which case the fungicides were formulated as EC formulations, containing 0.1% Trycol 5941 in the spray solutions. Grape seedlings (variety Carignane) were grown in soil-less Metro mix, with one plant per pot, and used in the test when approximately 1 month old. Plants were inoculated 24 hr after fungicide treatment by shaking spores from infected leaves over test plants. Plants were maintained in a greenhouse set at 20° C. until disease was fully developed. Fungicide formulation, application and disease assessment on sprayed leaves followed the procedures as described in the Example A.

[2] = tested on: Magnaporthe grisea; Anamorph: Pyricularia oryzae; experiment: whole plant or invertebrate; details: 24 h, read-out: PYRIOR Disease Control
[3] = tested on: Zymoseptoria tritici; experiment: Leaf blotch of wheat (SEPTTR), disease control on wheat seedlings; details: low volume application at 121.5 g/H
Summary of the method: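 Z. tritici spores were inoculated onto wheat seedlings (Yuma, first leaf emerged) either before or after treatment. Treatment was an automated spray to run-off of acetone/Triton X-100 water solutions, or a track spray of EC formulations with 0.1% Trycol 5941. Plants were held in dew chambers at 20 °C and then a greenhouse at 20 °C. First-leaf severity (0–100%) was converted to percent control against untreated plants.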

[4] = tested on: Pseudoperonospora cubensis; experiment: Cucumber downy mildew (PSPECU), disease control on cucumber seedlings; details: 24 h, 1DP (1 Day Protectant) test at 100 ppm
Protocol: Technical grades of materials were dissolved in acetone, which were then mixed with nine volumes of water containing 110 ppm Triton X-100. The fungicide solutions were applied onto wheat seedlings using an automated booth sprayer to run-off. All sprayed plants were allowed to air dry prior to further handling. All fungicides were evaluated using the aforementioned method for their activity vs. all target diseases, unless stated otherwise. Wheat leaf blotch and brown rust activity were also evaluated using track spray applications, in which case the fungicides were formulated as EC formulations, containing 0.1% Trycol 5941 in the spray solutions. Cucumber seedlings (variety Bush Pickle) were grown in soil-less Metro mix, with one plant per pot, and used in the test when 12 to 14 days old. Plants were inoculated with a spore suspension 24 hr following fungicide treatments. Test plants were inoculated with an aqueous spore suspension of Pseudoperonospora cubensis 24 hr after fungicide treatments. After inoculation the plants were kept in a dew room at 22° C. with 100% relative humidity for 24 hr to permit spores to germinate and infect the leaf. The plants were then transferred to a greenhouse set at 20° C. until disease was fully expressed. Fungicide formulation, application and disease assessment on the sprayed leaves followed the procedures as described in the Example A.

[5] = tested on: Glomerella lagenarium; Anamorph: Colletotrichum lagenarium; experiment: Cucumber anthracnose (COLLLA), disease control on cucumber seedlings; details: Colletotrichum orbiculare, 1DP test at 100 ppm, read-out: COLLLA disease control rating
Protocol: Technical grades of materials were dissolved in acetone, which were then mixed with nine volumes of water containing 110 ppm Triton X-100. The fungicide solutions were applied onto wheat seedlings using an automated booth sprayer to run-off. All sprayed plants were allowed to air dry prior to further handling. All fungicides were evaluated using the aforementioned method for their activity vs. all target diseases, unless stated otherwise. Wheat leaf blotch and brown rust activity were also evaluated using track spray applications, in which case the fungicides were formulated as EC formulations, containing 0.1% Trycol 5941 in the spray solutions. Cucumber seedlings (variety Bush Pickle) were propagated in soil-less Metro mix, with each pot having one plant, and used in the test when 12 to 14 days old. Test plants were inoculated with an aqueous spore suspension of Colletotrichum lagenarium 24 hr after fungicide treatments. After inoculation the plants were kept in a dew room at 22° C. with 100% relative humidity for 48 hr to permit spores to germinate and infect the leaf. The plants were then transferred to a growth room set at 22° C. for disease to develop. Fungicide formulation, application and disease assessment on the sprayed leaves followed the procedures as described in the Example A.

[6] = tested on: Alternaria solani; experiment: Tomato early blight (ALTESO), disease control on tomato plants; details: 1DP test at 100 ppm, read-out: ALTESO disease control rating
Protocol: Technical grades of materials were dissolved in acetone, which were then mixed with nine volumes of water containing 110 ppm Triton X-100. The fungicide solutions were applied onto wheat seedlings using an automated booth sprayer to run-off. All sprayed plants were allowed to air dry prior to further handling. All fungicides were evaluated using the aforementioned method for their activity vs. all target diseases, unless stated otherwise. Wheat leaf blotch and brown rust activity were also evaluated using track spray applications, in which case the fungicides were formulated as EC formulations, containing 0.1% Trycol 5941 in the spray solutions. Tomato plants (variety Outdoor Girl) were propagated in soil-less Metro mix, with each pot having one plant, and used when 12 to 14 days old. Test plants were inoculated with an aqueous spore suspension of Alternaria solani 24 hr after fungicide treatments. After inoculation the plants were kept in 100% relative humidity (one day in a dark dew chamber followed by two to three days in a lighted dew chamber at 20° C.) to permit spores to germinate and infect the leaf. The plants were then transferred to a growth room at 22° C. for disease to develop. Fungicide formulation, application and disease assessment on the sprayed leaves followed the procedures as described in the Example A.

[7] = 24 h, 1 Day Protectant, read-out: SEPTTR disease control, 1DP, LV activity
[8] = 72 h, 3 Day Curative, read-out: SEPTTR disease control, 3DC, LV activity

COc1ccnc(C(=O)N[C@@H](C)C(=O)O[C@@H](C)[C@H](c2ccc(F)cc2C)C(C)C)c1OC(C)=O [Compound 186]
pest or weed control at 100 ppm [1]: > 80%
pest or weed control at 100 ppm [2]: > 80%
pest or weed control at 121.5 g/ha [3, 7]: > 80%
pest or weed control at 121.5 g/ha [3, 8]: > 80%
pest or weed control at 100 ppm [4]: < 80%
pest or weed control at 100 ppm [5]: < 0%
pest or weed control at 100 ppm [6]: > 80%

CCC(CC)[C@@H](c1ccc(F)cc1C)[C@H](C)OC(=O)[C@H](C)NC(=O)c1nccc(OC)c1OC(C)=O [Compound 187]
pest or weed control at 100 ppm [1]: > 80%
pest or weed control at 100 ppm [2]: > 80%
pest or weed control at 121.5 g/ha [3, 7]: > 80%
pest or weed control at 121.5 g/ha [3, 8]: > 80%
pest or weed control at 100 ppm [4]: < 0%
pest or weed control at 100 ppm [5]: > 80%
pest or weed control at 100 ppm [6]: < 80%

COc1ccnc(C(=O)N[C@@H](C)C(=O)O[C@@H](C)[C@H](c2ccc(F)cc2C)C(C)C)c1OC(=O)C(C)C [Compound 216]
pest or weed control at 100 ppm [1]: > 80%
pest or weed control at 100 ppm [2]: > 80%
pest or weed control at 121.5 g/ha [3, 7]: > 80%
pest or weed control at 121.5 g/ha [3, 8]: > 80%
pest or weed control at 100 ppm [4]: < 80%
pest or weed control at 100 ppm [5]: < 80%
pest or weed control at 100 ppm [6]: < 80%

COc1ccnc2c(=O)n([C@@H](C)C(=O)O[C@@H](C)[C@H](c3ccc(F)cc3C)C(C)C)c(=O)oc12 [Compound 217]
pest or weed control at 100 ppm [1]: > 80%
pest or weed control at 100 ppm [2]: > 80%
pest or weed control at 121.5 g/ha [3, 7]: > 80%
pest or weed control at 121.5 g/ha [3, 8]: > 80%
pest or weed control at 100 ppm [4]: < 0%
pest or weed control at 100 ppm [5]: < 0%
pest or weed control at 100 ppm [6]: < 80%

COc1cc[n+]([O-])c(C(=O)N[C@@H](C)C(=O)O[C@@H](C)[C@H](c2ccc(F)cc2C)C(C)C)c1O [Compound 218]
pest or weed control at 100 ppm [1]: > 80%
pest or weed control at 100 ppm [2]: > 80%
pest or weed control at 121.5 g/ha [3, 7]: > 80%
pest or weed control at 121.5 g/ha [3, 8]: < 80%
pest or weed control at 100 ppm [4]: < 0%
pest or weed control at 100 ppm [5]: < 80%
pest or weed control at 100 ppm [6]: < 0%

COc1ccnc(C(=S)N[C@@H](C)C(=O)O[C@@H](C)[C@H](c2ccc(F)cc2C)C(C)C)c1OC(C)=O [Compound 219]
pest or weed control at 100 ppm [1]: > 80%
pest or weed control at 100 ppm [2]: > 80%
pest or weed control at 121.5 g/ha [3, 7]: < 80%
pest or weed control at 121.5 g/ha [3, 8]: > 80%
pest or weed control at 100 ppm [4]: < 80%
pest or weed control at 100 ppm [5]: < 80%
pest or weed control at 100 ppm [6]: < 80%

COCCC(=O)Oc1c(OC)ccnc1C(=O)N[C@@H](C)C(=O)O[C@@H](C)[C@H](c1ccc(F)cc1C)C(C)C [Compound 220]
pest or weed control at 100 ppm [1]: > 80%
pest or weed control at 100 ppm [2]: > 80%
pest or weed control at 121.5 g/ha [3, 7]: > 80%
pest or weed control at 121.5 g/ha [3, 8]: > 80%
pest or weed control at 100 ppm [4]: < 0%
pest or weed control at 100 ppm [5]: < 80%
pest or weed control at 100 ppm [6]: < 80%

COc1ccnc(C(=O)N[C@@H](C)C(=O)O[C@@H](C)[C@H](c2ccc(F)cc2C)C(C)C)c1OC(=O)C1CCCC1 [Compound 354]
pest or weed control at 100 ppm [1]: > 80%
pest or weed control at 100 ppm [2]: < 80%
pest or weed control at 121.5 g/ha [3, 7]: > 80%
pest or weed control at 121.5 g/ha [3, 8]: > 80%
pest or weed control at 100 ppm [4]: > 80%
pest or weed control at 100 ppm [5]: > 80%
pest or weed control at 100 ppm [6]: < 80%

CCC(C)C(=O)Oc1c(OC)ccnc1C(=O)N[C@@H](C)C(=O)O[C@@H](C)[C@H](c1ccc(F)cc1C)C(C)C (stereo partly drawn) [Compound 355]
pest or weed control at 100 ppm [1]: > 80%
pest or weed control at 100 ppm [2]: < 80%
pest or weed control at 121.5 g/ha [3, 7]: > 80%
pest or weed control at 121.5 g/ha [3, 8]: > 80%
pest or weed control at 100 ppm [4]: < 80%
pest or weed control at 100 ppm [5]: > 80%
pest or weed control at 100 ppm [6]: > 80%

COc1ccnc(C(=O)N[C@@H](C)C(=O)O[C@@H](C)[C@H](c2ccc(F)cc2C)C(C)C)c1OC(=O)CC(C)C [Compound 356]
pest or weed control at 100 ppm [1]: > 80%
pest or weed control at 100 ppm [2]: < 80%
pest or weed control at 121.5 g/ha [3, 7]: > 80%
pest or weed control at 121.5 g/ha [3, 8]: > 80%
pest or weed control at 100 ppm [4]: < 80%
pest or weed control at 100 ppm [5]: < 80%
pest or weed control at 100 ppm [6]: > 80%

CCC(=O)Oc1c(OC)ccnc1C(=O)N[C@@H](C)C(=O)O[C@@H](C)[C@H](c1ccc(F)cc1C)C(C)C [Compound 357]
pest or weed control at 100 ppm [1]: > 80%
pest or weed control at 100 ppm [2]: < 80%
pest or weed control at 121.5 g/ha [3, 7]: > 80%
pest or weed control at 121.5 g/ha [3, 8]: > 80%
pest or weed control at 100 ppm [4]: < 80%
pest or weed control at 100 ppm [5]: > 80%
pest or weed control at 100 ppm [6]: < 80%

COc1ccnc(C(=O)N[C@@H](C)C(=O)O[C@@H](C)[C@H](c2cccc(F)c2C)C(C)C)c1OC(C)=O [Compound 359]
pest or weed control at 100 ppm [1]: > 80%
pest or weed control at 100 ppm [2]: > 80%
pest or weed control at 121.5 g/ha [3, 7]: < 80%
pest or weed control at 121.5 g/ha [3, 8]: > 80%
pest or weed control at 100 ppm [4]: < 80%
pest or weed control at 100 ppm [5]: > 80%
pest or weed control at 100 ppm [6]: < 80%

COc1ccnc(C(=O)N[C@@H](C)C(=O)O[C@@H](C)[C@H](c2cccc(C)c2C)C(C)C)c1OC(C)=O [Compound 363]
pest or weed control at 100 ppm [1]: > 80%
pest or weed control at 100 ppm [2]: > 80%
pest or weed control at 121.5 g/ha [3, 7]: < 80%
pest or weed control at 121.5 g/ha [3, 8]: < 80%
pest or weed control at 100 ppm [4]: < 0%
pest or weed control at 100 ppm [5]: < 80%
pest or weed control at 100 ppm [6]: < 0%

COc1ccnc(C(=O)N[C@@H](C)C(=O)O[C@@H](C)[C@H](c2ccccc2C)C(C)C)c1OC(C)=O [Compound 364]
pest or weed control at 100 ppm [1]: > 80%
pest or weed control at 100 ppm [2]: > 80%
pest or weed control at 121.5 g/ha ([3]; 24 h, 1 Day Protectant, wheat leaf blotch, read-out: SEPTTR 1DP disease control, LV activity): < 80%
pest or weed control at 121.5 g/ha ([3]; 72 h, 3 Day Curative, wheat leaf blotch, read-out: SEPTTR 3DC disease control, LV activity): < 80%
pest or weed control at 100 ppm [4]: < 80%
pest or weed control at 100 ppm [5]: > 80%
pest or weed control at 100 ppm [6]: < 80%

CCOC(=O)Oc1c(OC)ccnc1C(=O)N(C(=O)OCC)[C@@H](C)C(=O)O[C@@H](C)[C@H](c1ccc(F)cc1C)C(C)C [Compound 371]
pest or weed control at 100 ppm [1]: > 80%
pest or weed control at 100 ppm [2]: < 80%
pest or weed control at 100 ppm [4]: < 80%
pest or weed control at 100 ppm [5]: > 80%
pest or weed control at 100 ppm [6]: < 80%

CCOC(=O)Oc1c(OC)ccnc1C(=O)N[C@@H](C)C(=O)O[C@@H](C)[C@H](c1ccc(F)cc1C)C(C)C [Compound 372]
pest or weed control at 100 ppm [1]: > 80%
pest or weed control at 100 ppm [2]: < 80%
pest or weed control at 100 ppm [4]: > 80%
pest or weed control at 100 ppm [5]: > 80%
pest or weed control at 100 ppm [6]: > 80%
